Source: PubChem BioAssay (NCI)
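How tested: cells in 96-well plates exposed to compound for 48 hours at five concentrations. At the GI50, growth is halved. At the TGI there is no net growth.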

How the values were obtained:
Experiment in all cases: inhibition of tumour cell growth, NCI panel, 48 h
IGROV1 ovarian = system: IGROV1 ovarian
SN12C renal = system: SN12C renal
HOP-62 NSCLC = system: HOP-62 NSCLC
U251 CNS = system: U251 CNS
UACC-257 melanoma = system: UACC-257 melanoma
SK-MEL-5 melanoma = system: SK-MEL-5 melanoma
SR leukemia = system: SR leukemia
BT-549 breast = system: BT-549 breast
RXF 393 renal = system: RXF 393 renal
KM12 colon = system: KM12 colon
OVCAR-5 ovarian = system: OVCAR-5 ovarian
COLO 205 colon = system: COLO 205 colon
CAKI-1 renal = system: CAKI-1 renal
TK-10 renal = system: TK-10 renal
NCI/ADR-RES ovarian = system: NCI/ADR-RES ovarian
SF-268 CNS = system: SF-268 CNS
RPMI-8226 leukemia = system: RPMI-8226 leukemia
SK-MEL-2 melanoma = system: SK-MEL-2 melanoma
A549 NSCLC = system: A549 NSCLC
HL-60(TB) leukemia = system: HL-60(TB) leukemia
A498 renal = system: A498 renal
MALME-3M melanoma = system: MALME-3M melanoma
LOX IMVI melanoma = system: LOX IMVI melanoma
SF-295 CNS = system: SF-295 CNS
NCI-H226 lung = system: NCI-H226 lung
EKVX NSCLC = system: EKVX NSCLC
M14 melanoma = system: M14 melanoma
HOP-92 NSCLC = system: HOP-92 NSCLC
PC-3 prostate = system: PC-3 prostate
UO-31 renal = system: UO-31 renal
786-0 renal = system: 786-0 renal
NCI-H522 lung = system: NCI-H522 lung
CCRF-CEM leukemia = system: CCRF-CEM leukemia
SNB-19 CNS = system: SNB-19 CNS
UACC-62 melanoma = system: UACC-62 melanoma
OVCAR-8 ovarian = system: OVCAR-8 ovarian
MCF7 breast = system: MCF7 breast
HS 578T breast = system: HS 578T breast
K-562 leukemia = system: K-562 leukemia
DU-145 prostate = system: DU-145 prostate
MDA-MB-435 = system: MDA-MB-435
SNB-75 CNS = system: SNB-75 CNS
SW-620 colon = system: SW-620 colon
HCC-2998 colon = system: HCC-2998 colon
SK-MEL-28 melanoma = system: SK-MEL-28 melanoma
OVCAR-4 ovarian = system: OVCAR-4 ovarian
MOLT-4 leukemia = system: MOLT-4 leukemia
HT29 colon = system: HT29 colon
ACHN renal = system: ACHN renal
HCT-116 colon = system: HCT-116 colon
MDA-MB-231 breast = system: MDA-MB-231 breast
NCI-H460 lung = system: NCI-H460 lung
HCT-15 colon = system: HCT-15 colon
SK-OV-3 ovarian = system: SK-OV-3 ovarian
T-47D breast = system: T-47D breast
SF-539 CNS = system: SF-539 CNS
NCI-H23 lung = system: NCI-H23 lung

## O=C(O)c1ccc(-n2c(=O)n(-c3cccc(C(F)(F)F)c3)c(=O)c3cc(-c4ccc(F)cc4F)ccc32)cc1
IGROV1 ovarian
  GI50: 2.91 µM
  TGI: 20.5 µM
SN12C renal
  GI50: 1.91 µM
  TGI: 8.29 µM
HOP-62 NSCLC
  GI50: 2.04 µM
  TGI: 4.66 µM
U251 CNS
  GI50: 2.06 µM
  TGI: 10.7 µM
UACC-257 melanoma
  GI50: 1.6 µM
  TGI: 4.96 µM
SK-MEL-5 melanoma
  GI50: 0.49 µM
  TGI: 1.88 µM
SR leukemia
  GI50: 0.555 µM
  TGI: 4.07 µM
BT-549 breast
  GI50: 1.54 µM
  TGI: 3.11 µM
RXF 393 renal
  GI50: 1.48 µM
  TGI: 3.47 µM
KM12 colon
  GI50: 2.59 µM
  TGI: 7.49 µM
OVCAR-5 ovarian
  GI50: 3.61 µM
  TGI: 28.5 µM
COLO 205 colon
  GI50: 2.85 µM
  TGI: 7.41 µM
CAKI-1 renal
  GI50: 2.11 µM
  TGI: 6.96 µM
TK-10 renal
  GI50: 3.86 µM
  TGI: 8.4 µM
NCI/ADR-RES ovarian
  GI50: 2.63 µM
  TGI: 15.2 µM
SF-268 CNS
  GI50: 2.37 µM
  TGI: 15 µM
RPMI-8226 leukemia
  GI50: 1.7 µM
  TGI: 7.05 µM
SK-MEL-2 melanoma
  GI50: 1.04 µM
  TGI: 2.91 µM
A549 NSCLC
  GI50: 2.96 µM
  TGI: 13.5 µM
HL-60(TB) leukemia
  GI50: 0.323 µM
  TGI: 11.1 µM
A498 renal
  GI50: 0.524 µM
  TGI: 1.87 µM
MALME-3M melanoma
  GI50: 1.78 µM
  TGI: 5.42 µM
LOX IMVI melanoma
  GI50: 1.73 µM
  TGI: 3.53 µM
SF-295 CNS
  GI50: 1.82 µM
  TGI: 3.82 µM
NCI-H226 lung
  GI50: 1.72 µM
  TGI: 4.8 µM
EKVX NSCLC
  GI50: 2.53 µM
  TGI: 8.53 µM
M14 melanoma
  GI50: 1.58 µM
  TGI: 3.72 µM
HOP-92 NSCLC
  GI50: 0.525 µM
  TGI: 3.54 µM
PC-3 prostate
  GI50: 2.86 µM
  TGI: 8.76 µM
UO-31 renal
  GI50: 2.54 µM
  TGI: 9.57 µM
786-0 renal
  GI50: 1.83 µM
  TGI: 3.63 µM
NCI-H522 lung
  GI50: 0.576 µM
  TGI: 3.98 µM
CCRF-CEM leukemia
  GI50: 3.32 µM
  TGI: 20.9 µM
SNB-19 CNS
  GI50: 2.03 µM
  TGI: 31.1 µM
UACC-62 melanoma
  GI50: 0.582 µM
  TGI: 2.51 µM
OVCAR-8 ovarian
  GI50: 2.03 µM
  TGI: 8.43 µM
MCF7 breast
  GI50: 2 µM
  TGI: 9.29 µM
HS 578T breast
  GI50: 2.12 µM
  TGI: 6.98 µM
K-562 leukemia
  GI50: 0.335 µM
  TGI: 7.74 µM
DU-145 prostate
  GI50: 3.37 µM
  TGI: 14.2 µM
MDA-MB-435
  GI50: 2.31 µM
  TGI: 7.62 µM
SNB-75 CNS
  GI50: 1.93 µM
  TGI: 7.02 µM
SW-620 colon
  GI50: 2.03 µM
  TGI: 4.96 µM
HCC-2998 colon
  GI50: 3.03 µM
  TGI: 9.71 µM
SK-MEL-28 melanoma
  GI50: 1.85 µM
  TGI: 6.79 µM
OVCAR-4 ovarian
  GI50: 2.82 µM
  TGI: 35 µM
MOLT-4 leukemia
  GI50: 1.44 µM
  TGI: 6.16 µM
HT29 colon
  GI50: 3.58 µM
  TGI: 13.7 µM
ACHN renal
  GI50: 2.67 µM
  TGI: 10.6 µM
HCT-116 colon
  GI50: 1.1 µM
  TGI: 2.39 µM
MDA-MB-231 breast
  GI50: 2.18 µM
  TGI: 6.71 µM
NCI-H460 lung
  GI50: 1.58 µM
  TGI: 8.21 µM
HCT-15 colon
  GI50: 1.04 µM
  TGI: 3 µM
SK-OV-3 ovarian
  GI50: 1.45 µM
  TGI: 4.12 µM
T-47D breast
  GI50: 1.79 µM
  TGI: 6.21 µM
SF-539 CNS
  GI50: 2.2 µM
  TGI: 8.17 µM
NCI-H23 lung
  GI50: 1.56 µM
  TGI: 5.88 µM
